Experimental data taken from US7307091B2, “Deuterated 3-piperidinopropiophenone and medicaments containing said compounds” (BDD Berolina Drug Development GmbH, priority 2001, dated 2007).

How the values were obtained:
CYP2D6 = biological target: T1, CYP2D6 (Homo sapiens, UniProt P10635); experiment: In-vitro biological degradation by cytochrome P450 enzymes: CYP2D6; type: in vitro ADME
T1 construct: expressed in transfected cells; host or cells: cell line named only by the CYP it carries

CYP2C19 = biological target: T2, CYP2C19 (Homo sapiens, UniProt P33261); experiment: In-vitro biological degradation by cytochrome P450 enzymes: CYP2C19; type: in vitro ADME
T2 construct: expressed in transfected cells; host or cells: cell line named only by the CYP it carries

CYP1A1 = biological target: T3, CYP1A1 (Homo sapiens, UniProt P04798); experiment: In-vitro biological degradation by cytochrome P450 enzymes: CYP1A1; type: in vitro ADME; conditions: 37° C., pH 7.4, 3 mM NADPH, protein 0.5 mg/mL; FIG. 1
T3 construct: expressed in transfected cells; host or cells: cell line named only by the CYP it carries
T3 sequence (P04798 1-512): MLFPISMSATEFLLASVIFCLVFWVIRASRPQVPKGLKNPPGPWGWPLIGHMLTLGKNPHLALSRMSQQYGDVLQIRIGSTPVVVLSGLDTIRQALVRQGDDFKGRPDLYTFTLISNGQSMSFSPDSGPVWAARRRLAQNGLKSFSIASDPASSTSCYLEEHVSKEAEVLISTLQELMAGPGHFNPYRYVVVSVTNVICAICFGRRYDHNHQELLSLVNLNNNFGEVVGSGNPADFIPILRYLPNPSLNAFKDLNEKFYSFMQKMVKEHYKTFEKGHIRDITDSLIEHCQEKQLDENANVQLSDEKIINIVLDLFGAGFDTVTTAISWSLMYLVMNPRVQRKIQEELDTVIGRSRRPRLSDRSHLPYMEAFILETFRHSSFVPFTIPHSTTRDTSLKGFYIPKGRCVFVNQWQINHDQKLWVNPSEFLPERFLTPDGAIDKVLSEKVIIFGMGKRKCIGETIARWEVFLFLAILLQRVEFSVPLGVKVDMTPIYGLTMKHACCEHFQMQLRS

CYP2C8 = biological target: T4, CYP2C8 (Homo sapiens, UniProt P10632); experiment: In-vitro biological degradation by cytochrome P450 enzymes: CYP2C8; type: in vitro ADME; conditions: 37° C., pH 7.4, 3 mM NADPH, protein 0.5 mg/mL; FIG. 1
T4 construct: expressed in transfected cells; host or cells: cell line named only by the CYP it carries
T4 sequence (P10632 1-490): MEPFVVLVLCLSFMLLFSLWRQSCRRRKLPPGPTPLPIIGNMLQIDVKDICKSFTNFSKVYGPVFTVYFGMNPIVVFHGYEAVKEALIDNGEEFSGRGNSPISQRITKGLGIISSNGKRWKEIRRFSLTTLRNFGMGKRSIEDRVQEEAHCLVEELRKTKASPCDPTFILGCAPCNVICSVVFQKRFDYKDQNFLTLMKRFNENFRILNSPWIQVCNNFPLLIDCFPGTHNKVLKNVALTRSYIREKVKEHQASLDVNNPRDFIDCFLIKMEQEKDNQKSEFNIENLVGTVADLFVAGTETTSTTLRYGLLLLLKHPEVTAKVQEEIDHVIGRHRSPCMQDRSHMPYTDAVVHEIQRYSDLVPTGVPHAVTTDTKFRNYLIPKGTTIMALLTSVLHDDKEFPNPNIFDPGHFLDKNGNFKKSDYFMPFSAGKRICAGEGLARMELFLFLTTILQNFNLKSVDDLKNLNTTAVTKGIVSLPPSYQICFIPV

[1] = strong first-pass effect; background statement; cited from earlier work
CYP1A2 = biological target: T5, CYP1A2 (Homo sapiens, UniProt P05177); experiment: In-vitro biological degradation by cytochrome P450 enzymes: CYP1A2; type: in vitro ADME; conditions: 37° C., pH 7.4, 3 mM NADPH, protein 0.5 mg/mL; FIG. 1
T5 construct: expressed in transfected cells; host or cells: cell line named only by the CYP it carries
T5 sequence (P05177 1-516): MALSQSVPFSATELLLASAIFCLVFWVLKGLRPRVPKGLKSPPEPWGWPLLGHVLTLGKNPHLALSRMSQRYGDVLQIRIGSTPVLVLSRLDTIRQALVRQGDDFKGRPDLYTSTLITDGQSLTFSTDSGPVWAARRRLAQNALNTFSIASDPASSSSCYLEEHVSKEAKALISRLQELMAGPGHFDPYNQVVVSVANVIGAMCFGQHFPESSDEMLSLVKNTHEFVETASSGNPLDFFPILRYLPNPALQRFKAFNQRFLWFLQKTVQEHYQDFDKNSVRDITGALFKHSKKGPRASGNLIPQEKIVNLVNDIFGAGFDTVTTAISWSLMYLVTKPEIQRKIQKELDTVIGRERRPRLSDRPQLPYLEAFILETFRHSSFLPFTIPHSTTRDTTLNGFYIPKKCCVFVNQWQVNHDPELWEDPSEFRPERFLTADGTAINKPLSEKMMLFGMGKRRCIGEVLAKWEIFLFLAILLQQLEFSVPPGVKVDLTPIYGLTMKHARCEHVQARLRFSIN

CYP2E1 = biological target: T6, CYP2E1 (Homo sapiens, UniProt P05181); experiment: In-vitro biological degradation by cytochrome P450 enzymes: CYP2E1; type: in vitro ADME; conditions: 37° C., pH 7.4, 3 mM NADPH, protein 0.5 mg/mL; FIG. 1
T6 construct: expressed in transfected cells; host or cells: cell line named only by the CYP it carries

CYP3A4 = biological target: T7, CYP3A4 (Homo sapiens, UniProt P08684); experiment: In-vitro biological degradation by cytochrome P450 enzymes: CYP3A4; type: in vitro ADME; conditions: 37° C., pH 7.4, 3 mM NADPH, protein 0.5 mg/mL; FIG. 1
T7 construct: expressed in transfected cells; host or cells: cell line named only by the CYP it carries

[2] = 37° C., pH 7.4, 3 mM NADPH, protein 0.5 mg/mL, LC/MS/MS, FIG. 1
[3] = primary metabolites formed by hydroxylation, FIG. 2
[4] = relative to tolperisone, FIG. 3

T1 sequence (P10635 whole entry): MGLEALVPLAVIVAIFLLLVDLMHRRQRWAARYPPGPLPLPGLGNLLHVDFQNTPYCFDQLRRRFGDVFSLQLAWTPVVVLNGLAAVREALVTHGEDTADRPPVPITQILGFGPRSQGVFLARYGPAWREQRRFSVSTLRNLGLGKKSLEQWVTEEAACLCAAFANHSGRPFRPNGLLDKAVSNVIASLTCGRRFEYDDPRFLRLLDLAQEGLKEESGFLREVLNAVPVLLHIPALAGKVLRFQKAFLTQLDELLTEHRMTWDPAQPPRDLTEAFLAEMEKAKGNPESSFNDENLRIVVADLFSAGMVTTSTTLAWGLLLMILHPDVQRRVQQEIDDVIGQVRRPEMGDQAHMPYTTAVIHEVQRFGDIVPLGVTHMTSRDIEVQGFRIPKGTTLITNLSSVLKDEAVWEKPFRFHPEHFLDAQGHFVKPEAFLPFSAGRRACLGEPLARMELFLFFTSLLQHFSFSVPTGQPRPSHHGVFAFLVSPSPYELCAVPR
T2 sequence (P33261 whole entry): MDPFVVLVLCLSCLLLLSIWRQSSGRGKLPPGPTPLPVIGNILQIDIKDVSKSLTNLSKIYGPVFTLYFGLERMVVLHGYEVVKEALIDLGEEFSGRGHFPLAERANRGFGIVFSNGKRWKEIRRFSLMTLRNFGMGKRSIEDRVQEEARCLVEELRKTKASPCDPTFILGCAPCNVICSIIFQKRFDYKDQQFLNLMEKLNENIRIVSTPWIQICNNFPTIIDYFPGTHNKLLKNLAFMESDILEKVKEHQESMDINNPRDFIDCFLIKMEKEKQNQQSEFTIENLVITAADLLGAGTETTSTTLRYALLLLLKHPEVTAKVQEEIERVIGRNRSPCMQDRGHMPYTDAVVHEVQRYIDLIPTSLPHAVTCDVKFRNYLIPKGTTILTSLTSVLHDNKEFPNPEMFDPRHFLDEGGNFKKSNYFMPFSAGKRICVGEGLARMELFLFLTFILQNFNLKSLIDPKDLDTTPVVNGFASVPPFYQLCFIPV
T6 sequence (P05181 whole entry): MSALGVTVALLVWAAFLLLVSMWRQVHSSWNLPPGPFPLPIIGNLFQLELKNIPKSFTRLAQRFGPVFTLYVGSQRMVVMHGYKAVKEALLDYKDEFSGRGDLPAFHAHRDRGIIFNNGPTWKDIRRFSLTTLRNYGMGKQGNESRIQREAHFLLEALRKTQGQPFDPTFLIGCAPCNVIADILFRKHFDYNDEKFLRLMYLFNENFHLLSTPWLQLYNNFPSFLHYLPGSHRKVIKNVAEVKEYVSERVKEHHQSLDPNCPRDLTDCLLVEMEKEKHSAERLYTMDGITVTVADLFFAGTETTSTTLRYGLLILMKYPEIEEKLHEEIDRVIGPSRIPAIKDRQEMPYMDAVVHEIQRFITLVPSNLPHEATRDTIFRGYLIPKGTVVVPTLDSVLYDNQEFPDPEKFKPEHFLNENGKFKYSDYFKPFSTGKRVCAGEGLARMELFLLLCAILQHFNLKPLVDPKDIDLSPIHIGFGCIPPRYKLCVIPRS
T7 sequence (P08684 whole entry): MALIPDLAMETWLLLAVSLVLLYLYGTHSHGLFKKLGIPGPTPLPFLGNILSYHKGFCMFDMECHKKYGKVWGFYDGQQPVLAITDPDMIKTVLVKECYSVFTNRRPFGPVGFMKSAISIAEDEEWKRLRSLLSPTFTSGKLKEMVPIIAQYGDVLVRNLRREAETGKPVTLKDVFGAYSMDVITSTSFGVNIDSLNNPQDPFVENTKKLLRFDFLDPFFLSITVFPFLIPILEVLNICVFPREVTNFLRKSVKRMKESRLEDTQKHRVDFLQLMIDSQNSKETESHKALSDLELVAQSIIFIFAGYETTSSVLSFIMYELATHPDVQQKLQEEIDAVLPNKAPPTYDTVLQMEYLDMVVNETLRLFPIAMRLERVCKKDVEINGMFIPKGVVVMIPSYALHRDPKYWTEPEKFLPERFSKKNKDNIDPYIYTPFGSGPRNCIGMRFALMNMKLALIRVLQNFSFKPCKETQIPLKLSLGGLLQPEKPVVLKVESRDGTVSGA

Compound | enzymatic degradation (decrease in tolperisone concentration over time) by CYP2D6 (CYP2D6; [2]) | formation of hydroxy metabolites by CYP2D6 (CYP2D6; [3]) | enzymatic degradation (decrease in tolperisone concentration over time) by CYP2C19 (CYP2C19; [2]) | formation of hydroxy metabolites by CYP2C19 (CYP2C19; [3]) | contribution to biological degradation by CYP1A1 (CYP1A1) | contribution to biological degradation by CYP2C8 (CYP2C8) | fraction of the administered dose found unchanged in the blood [1] | contribution to biological degradation by CYP1A2 (CYP1A2) | contribution to biological degradation by CYP2E1 (CYP2E1) | contribution to biological degradation by CYP3A4 (CYP3A4) | factor by which enzymatic hydroxylation by CYP2D6 is retarded in comparison to tolperisone (CYP2D6; [4]) | factor by which enzymatic hydroxylation by CYP2C19 is retarded in comparison to tolperisone (CYP2C19; [4])
Cc1ccc(C(=O)C(C)CN2CCCCC2)cc1 (stereo not drawn) [tolperisone] | transformed above all | to the same extent as the substrate is degraded | transformed above all | to the same extent as the substrate is degraded | contribute at most insignificantly | contribute at most insignificantly | one-fifth | contribute at most insignificantly | contribute at most insignificantly | contribute at most insignificantly |  | 
[2H]c1c([2H])c(C([2H])([2H])[2H])c([2H])c([2H])c1C(=O)C(C)CN1CCCCC1 (stereo not drawn) [I, 1-[4-(trideuteromethyl)tetradeuterophenyl]-2-methyl-3-piperidin-1-yl-1-propanone] |  |  |  |  |  |  |  |  |  |  | 10 | 10
